Measured values: patent US7470680B2, “Constrained compounds as CGRP-receptor antagonists” (Bristol-Myers Squibb Company, priority 2006, dated 2008)

Biological target: CGRP receptor (Homo sapiens, UniProt O60894+Q16602)
Assay: CGRP radioligand binding assay ([125I]-CGRP displacement, SK-N-MC homogenate)
Parameters: endogenous in cells; host or cells: SK-N-MC cells (homogenate/membrane pellet)
Conditions: Table 1; displacement of [125I]-CGRP, SK-N-MC membranes
Experimental: CGRP Binding Assay. Tissue Culture. SK-N-MC cells were grown at 37° C. in 5% CO2 as a monolayer in medium consisting of MEM with Earle's salts and L-glutamine (Gibco) supplemented with 10% fetal bovine serum (Gibco). Cell Pellets. The cells were rinsed twice with phosphate-buffered saline (155 mM NaCl, 3.3 mM Na2HPO4, 1.1 mM KH2PO4, pH 7.4), and incubated for 5-10 min. at 4° C. in hypotonic lysis buffer consisting of 10 mM Tris (pH 7.4) and 5 mM EDTA. The cells were transferred from plates to polypropylene tubes (16×100 mm) and homogenized using a polytron. Homogenates were centrifuged at 32,000×g for 30 min. The pellets were resuspended in cold hypotonic lysis buffer with 0.1% mammalian protease inhibitor cocktail (Sigma) and assayed for protein concentration. The SK-N-MC homogenate was then aliquoted and stored at −80° C. until needed.
Radioligand Binding Assay. The compounds of invention were solubilized and carried through serial dilutions using 100% DMSO. Aliquots from the compound serial dilutions were further diluted 25 fold into assay buffer (50 mM Tris-Cl pH 7.5, 5 mM MgCl2, 0.005% Triton X-100) and transferred (volume 50 μl) into 96 well assay plates. [^125I]-CGRP (Amersham Biosciences) was diluted to 60 pM in assay buffer and a volume of […] was added to each well. SK-N-MC pellets were thawed, diluted in assay buffer with fresh 0.1% mammalian protease inhibitor cocktail (Sigma), and homogenized again. SK-N-MC homogenate (5 μg/well) was added in a volume of 100 μl. The assay plates were then incubated at room temperature for 2 h. Assays were stopped by addition of excess cold wash buffer (20 mM Tris-Cl pH 7.5, 0.1% BSA) immediately followed by filtration over glass fiber filters (Whatman GF/B) previously soaked in 0.5% PEI. Non-specific binding was defined with 1 μM beta-CGRP. Protein bound radioactivity was determined using a gamma or scintillation counter. The IC50 was defined as the concentration of a compound of invention required to displace 50% of radioligand binding.

Chain of CGRP receptor (Q16602 23-461): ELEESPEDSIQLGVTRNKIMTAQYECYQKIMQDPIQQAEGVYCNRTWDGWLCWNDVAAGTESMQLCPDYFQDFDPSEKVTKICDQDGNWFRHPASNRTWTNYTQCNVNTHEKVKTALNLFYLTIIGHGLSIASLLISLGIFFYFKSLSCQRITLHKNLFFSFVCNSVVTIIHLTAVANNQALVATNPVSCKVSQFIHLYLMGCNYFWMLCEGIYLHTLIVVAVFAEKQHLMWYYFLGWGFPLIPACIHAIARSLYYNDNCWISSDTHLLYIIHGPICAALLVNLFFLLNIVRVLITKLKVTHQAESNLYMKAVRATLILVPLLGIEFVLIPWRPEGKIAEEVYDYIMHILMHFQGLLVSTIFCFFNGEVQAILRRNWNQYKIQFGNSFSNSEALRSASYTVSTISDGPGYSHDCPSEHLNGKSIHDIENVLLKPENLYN
Chain of CGRP receptor (O60894 27-148): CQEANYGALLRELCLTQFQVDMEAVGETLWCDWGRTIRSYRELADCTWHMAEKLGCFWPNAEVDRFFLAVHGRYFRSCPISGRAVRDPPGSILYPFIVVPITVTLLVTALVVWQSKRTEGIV

IC50 [nM] | Structure (SMILES)
0.01 to 10 | O=C(C[C@@H]1Cc2cc(Cl)c3[nH]ncc3c2CN(CC(F)(F)F)C1=O)N1CCC(N2CCc3ccccc3NC2=O)CC1
0.01 to 10 | O=C(C[C@@H]1Cc2cc(Cl)c3[nH]ncc3c2CN(CC(F)(F)F)C1=O)N1CCC(n2cc[nH]c2=O)CC1
0.01 to 10 | O=C(C[C@@H]1Cc2cc(Cl)c3[nH]ncc3c2CN(CC(F)(F)F)C1=O)N1CCC(n2c(=O)[nH]c3ccccc32)CC1
> 1000 | O=C(C[C@@H]1Cc2cc(Cl)c3[nH]ncc3c2CN(CC(F)(F)F)C1=O)N1CCC(N2CCN(c3ccccc3F)C2=O)CC1
0.01 to 10 | O=C(C[C@@H]1Cc2cc(Br)c3[nH]nc(Br)c3c2CN(CC(F)(F)F)C1=O)N1CCC(N2CCc3ccccc3NC2=O)CC1
10 to 100 | O=C(C[C@@H]1Cc2cc(Cl)c3[nH]ncc3c2CN(CC(F)(F)F)C1=O)N1CCC(N2CCc3cccc(F)c3NC2=O)CC1
0.01 to 10 | O=C(C[C@@H]1Cc2cc(Cl)c3[nH]ncc3c2CN(CC(F)(F)F)C1=O)N1CCC(N2CCc3cccnc3NC2=O)CC1
0.01 to 10 | O=C(C[C@@H]1Cc2cc(Cl)c3[nH]ncc3c2CN(CC(F)(F)F)C1=O)N1CCC(N2CCc3ncccc3NC2=O)CC1
0.01 to 10 | O=C(C[C@@H]1Cc2cc(Cl)c3[nH]ncc3c2CN(CC(F)(F)F)C1=O)N1CCC(n2c(=O)[nH]c3c(F)cccc32)CC1
0.01 to 10 | O=C(C[C@@H]1Cc2cc(Br)c3[nH]nc(Cl)c3c2CN(CC(F)(F)F)C1=O)N1CCC(N2CCc3ccccc3NC2=O)CC1
0.01 to 10 | O=C(C[C@@H]1Cc2cc(Br)c3[nH]nc(Cl)c3c2CN(CC(F)(F)F)C1=O)N1CCC(n2c(=O)[nH]c3ncccc32)CC1
0.01 to 10 | O=C(C[C@@H]1Cc2cc(Cl)c3[nH]nc(Cl)c3c2CN(CC(F)(F)F)C1=O)N1CCC(N2CCc3ccccc3NC2=O)CC1
0.01 to 10 | O=C(C[C@@H]1Cc2cc(Cl)c3[nH]nc(Cl)c3c2CN(CC(F)(F)F)C1=O)N1CCC(n2c(=O)[nH]c3ncccc32)CC1
0.01 to 10 | O=C(C[C@@H]1Cc2cc(Cl)c3[nH]nc(Cl)c3c2CN(CCN2CCCCC2)C1=O)N1CCC(N2CCc3ccccc3NC2=O)CC1
0.01 to 10 | O=C(O[C@@H]1Cc2cc(Cl)c3[nH]ncc3c2CN(CC(F)(F)F)C1=O)N1CCC(N2CCc3ccccc3NC2=O)CC1
0.01 to 10 | Cn1ncc2c3c(cc(Cl)c21)C[C@@H](CC(=O)N1CCC(N2CCc4ccccc4NC2=O)CC1)C(=O)N(CC(F)(F)F)C3
10 to 100 | CCCn1ncc2c3c(cc(Cl)c21)C[C@@H](CC(=O)N1CCC(N2CCc4ccccc4NC2=O)CC1)C(=O)N(CC(F)(F)F)C3
10 to 100 | COCn1ncc2c3c(cc(Cl)c21)C[C@@H](CC(=O)N1CCC(N2CCc4ccccc4NC2=O)CC1)C(=O)N(CC(F)(F)F)C3
0.01 to 10 | COCCn1ncc2c3c(cc(Cl)c21)C[C@@H](CC(=O)N1CCC(N2CCc4ccccc4NC2=O)CC1)C(=O)N(CC(F)(F)F)C3

Second part, the compound before the results:

Structure (SMILES) | IC50 [nM]
O=C(C[C@@H]1Cc2cc(Cl)c3[nH]ncc3c2CN(CC(F)(F)F)C1=O)N1CCC(n2ccn(-c3ccccc3)c2=O)CC1 | 100 to 1000
N#Cc1cn(C2CCN(C(=O)C[C@@H]3Cc4cc(Cl)c5[nH]ncc5c4CN(CC(F)(F)F)C3=O)CC2)c(=O)[nH]1 | 10 to 100
O=C(C[C@@H]1Cc2cc(Cl)c3[nH]ncc3c2CN(CC(F)(F)F)C1=O)N1CCC(n2ccn(-c3ccccc3F)c2=O)CC1 | > 1000
O=C(C[C@@H]1Cc2cc(Cl)c3[nH]ncc3c2CN(CC(F)(F)F)C1=O)N1CCC(n2c(=O)[nH]c3ncccc32)CC1 | 0.01 to 10
O=C(C[C@@H]1Cc2cc(Cl)c3[nH]ncc3c2CN(CC(F)(F)F)C1=O)N1CCC(n2c(=O)[nH]c3c2ccc[n+]3[O-])CC1 | 10 to 100
O=C(C[C@@H]1Cc2cc(Br)c3[nH]nc(Br)c3c2CN(CC(F)(F)F)C1=O)N1CCC(n2c(=O)[nH]c3ncccc32)CC1 | 0.01 to 10
O=C(C[C@@H]1Cc2cc(Cl)c3[nH]nc(Cl)c3c2CN(CCN2CCCCC2)C1=O)N1CCC(n2c(=O)[nH]c3ncccc32)CC1 | 0.01 to 10
Cn1ccc2[nH]c(=O)c(C3CCN(C(=O)C[C@@H]4Cc5cc(Cl)c6[nH]ccc6c5CN(CC(C)(C)C)C4=O)CC3)cc21 | 0.01 to 10
CC(C)(C)CN1Cc2c(cc(Cl)c3[nH]ccc23)C[C@@H](CC(=O)N2CCC(c3cc4sccc4[nH]c3=O)CC2)C1=O | 0.01 to 10
CC(C)(C)CN1Cc2c(cc(Cl)c3[nH]ncc23)C[C@@H](CC(=O)N2CCC(c3cc4scc(Br)c4[nH]c3=O)CC2)C1=O | 0.01 to 10
CC(C)(C)CN1Cc2c(cc(Cl)c3[nH]ncc23)C[C@@H](CC(=O)N2CCC(c3cc4sc(Cl)cc4[nH]c3=O)CC2)C1=O | 0.01 to 10
CC(C)(C)CN1Cc2c(cc(Cl)c3[nH]ccc23)C[C@@H](CC(=O)N2CCC(c3cc4[nH]ccc4[nH]c3=O)CC2)C1=O | 0.01 to 10
CC(C)(C)CN1Cc2c(cc(Cl)c3[nH]ccc23)C[C@@H](CC(=O)N2CCC(O)(c3cc(Cl)nc4[nH]ccc34)CC2)C1=O | 100 to 1000
O=C(O[C@@H]1Cc2cc(Cl)c3[nH]ncc3c2CN(CC(F)(F)F)C1=O)N1CCC(n2c(=O)[nH]c3ncccc32)CC1 | 0.01 to 10
O=C1Nc2ccccc2C2(CCN(C(=O)C[C@@H]3Cc4cc(Cl)c5[nH]ncc5c4CN(CC(F)(F)F)C3=O)CC2)N1 | 0.01 to 10
O=C1NC(=O)C(C2CCN(C(=O)C[C@@H]3Cc4cc(Cl)c5[nH]ncc5c4CN(CC(F)(F)F)C3=O)CC2)N1 (some centres unmarked) | 100 to 1000
O=C1NC(=O)C2(CCN(C(=O)C[C@@H]3Cc4cc(Cl)c5[nH]ncc5c4CN(CC(F)(F)F)C3=O)CC2)N1 | 10 to 100
N#Cc1cc(Cl)ccc1C1=CCN(C(=O)C[C@@H]2Cc3cc(Cl)c4[nH]ncc4c3CN(CC(F)(F)F)C2=O)CC1 | 10 to 100
Cn1ncc2c3c(cc(Cl)c21)C[C@@H](CC(=O)N1CCC(n2c(=O)[nH]c4ncccc42)CC1)C(=O)N(CC(F)(F)F)C3 | 0.01 to 10
CCn1ncc2c3c(cc(Cl)c21)C[C@@H](CC(=O)N1CCC(n2c(=O)[nH]c4ncccc42)CC1)C(=O)N(CC(F)(F)F)C3 | 10 to 100
O=C(C[C@@H]1Cc2cc(Cl)c3c(cnn3Cc3ccccc3)c2CN(CC(F)(F)F)C1=O)N1CCC(n2c(=O)[nH]c3ncccc32)CC1 | 10 to 100

Same assay, conditions: Table 2; displacement of [125I]-CGRP, SK-N-MC membranes

IC50 [nM] | Structure (SMILES)
0.01 to 10 | O=C(C[C@@H]1Cc2cc(Cl)c3[nH]ncc3c2CN(Cc2ccncc2)C1=O)N1CCC(c2cc3cccc(F)c3[nH]c2=O)CC1
100 to 1000 | O=C1Nc2ccccc2CC1N1CCN(C(=O)N[C@@H]2Cc3ccc4[nH]ncc4c3CN(Cc3ccccc3)C2=O)CC1 (some centres unmarked)
100 to 1000 | CC(C)(C)CN1Cc2c(ccc3[nH]ncc23)C[C@@H](NC(=O)N2CCC3(CC2)N=C(c2ccccc2)NC3=O)C1=O
> 1000 | CC(C)(C)CN1Cc2c(ccc3[nH]ncc23)C[C@@H](NC(=O)N2CCC3(CC2)CC(=O)Nc2ccccc23)C1=O
10 to 100 | CC(=O)N1CCC(N2Cc3c(ccc4[nH]ncc34)C[C@@H](NC(=O)N3CCC(N4Cc5ccccc5NC4=O)CC3)C2=O)CC1
> 1000 | COc1cc2ccccc2cc1C1CCN(C(=O)N[C@@H]2Cc3cc(Cl)c4[nH]ncc4c3CN(CC(C)(C)C)C2=O)CC1
0.01 to 10 | O=C(C[C@@H]1Cc2cc(Cl)c3[nH]ncc3c2CN(CC(F)(F)F)C1=O)N1CCC(N2Cc3ccccc3NC2=O)CC1
0.01 to 10 | CC(C)(C)CN1Cc2c(cc(Cl)c3[nH]ncc23)C[C@@H](CC(=O)N2CCC(N3Cc4cccnc4NC3=O)CC2)C1=O
0.01 to 10 | CC(C)(C)CN1Cc2c(cc(Cl)c3[nH]ncc23)C[C@@H](CC(=O)N2CCC(c3cc4cccnc4[nH]c3=O)CC2)C1=O
0.01 to 10 | O=C(C[C@@H]1Cc2cc(Cl)c3[nH]ncc3c2CN(Cc2ccncc2)C1=O)N1CCC(c2cc3ccccc3c[n+]2[O-])CC1
